Converted amounts (≈) assume the structure as drawn. Where two headings read alike, the source gives them in different places. One block for each molecule: values may come before it.
Columns and labels:
Experiment in all cases: MIC by agar dilution method
Assay type in all cases: cell-based
[1] = tested on: Candida albicans 579a; details: read-out: MIC II
Method: (§1) Minimal inhibitory concentrations (MICs) were determined by an agar dilution method. The test compounds were serially diluted in MeOH and 0.2 mL portions were mixed with 20 mL of molten, cooled Sabouraud dextrose agar (Difco). Yeast cell inoculum was prepared by growing cultures on Sabouraud dextrose agar for 18 hours at 32° C. and suspending the cells in phosphate buffered saline. Filamentous fungi were grown under the same conditions for 4 days to obtain spores. The inoculum level for all cultures was adjusted to 10^4 cells using a Petroff-Hauser cell counter. The glutarimide antifungal compounds cycloheximide or amphotericin B were used as a control. Inoculated test plates were incubated at 32° C. and examined after 20 hours.

[2] = tested on: Candida albicans ATCC 10231
Method: as §1

[3] = tested on: Candida albicans ATCC 38247
Method: as §1

[4] = tested on: Candida albicans ATCC 62376
Method: as §1

[5] = tested on: Candida albicans CCH 442; details: CCH442; Table 6c, 3rd value column (head printed II); III Candida albicans CCH 442; agar dilution; read-out: MIC II
Method: as §1

[6] = Table 6c, II Candida albicans 579a, agar dilution
[7] = ATCC10231, Table 6c, I Candida albicans ATCC 10231, agar dilution, read-out: MIC I
[8] = ATCC38247, Table 6c, IV Candida albicans ATCC 38247, agar dilution, read-out: MIC IV
[9] = ATCC62376, Table 6c, V Candida albicans ATCC 62376, agar dilution, read-out: MIC V
[10] = Candida albicans, ATCC10231, read-out: MIC I
[11] = Candida albicans, ATCC38247, read-out: MIC IV
[12] = Candida albicans, ATCC62376, read-out: MIC V

SMILES: CCCCC/C=C/C=C/[C@@H](O)C/C=C/C=C/C(=O)O[C@@H]1[C@@H](O)[C@H](c2c(O)cc(O)cc2CO)O[C@H](CO)[C@H]1O[C@@H]1O[C@H](COC(=O)c2ccc(OCCCCCCCC)cc2)[C@H](O)[C@H](O)[C@H]1O[C@@H]1O[C@H](CO)[C@H](O)[C@H](O)[C@H]1O [Example 18]
MIC [1, 6]: 1.56 µg/mL (≈ 1.41 µM)
MIC [2, 7]: 3.12 µg/mL (≈ 2.82 µM)
MIC [3, 8]: 1.56 µg/mL (≈ 1.41 µM)
MIC [4, 9]: 0.78 µg/mL (≈ 0.706 µM)
MIC [5]: 1.56 µg/mL (≈ 1.41 µM)

SMILES: CCCCC/C=C/C=C/[C@@H](O)C/C=C/C=C/C(=O)O[C@@H]1[C@@H](O)[C@H](c2c(O)cc(O)cc2CO)O[C@H](CO)[C@H]1O[C@@H]1O[C@H](COC(=O)c2cccc3ccccc23)[C@H](O)[C@H](O)[C@H]1O[C@@H]1O[C@H](CO)[C@H](O)[C@H](O)[C@H]1O [Example 20]
MIC [1, 6]: 3.12 µg/mL (≈ 3.04 µM)
MIC [2, 7]: 3.12 µg/mL (≈ 3.04 µM)
MIC [3, 8]: 1.56 µg/mL (≈ 1.52 µM)
MIC [4, 9]: 6.25 µg/mL (≈ 6.09 µM)
MIC [5]: 3.12 µg/mL (≈ 3.04 µM)

SMILES: CCCCC/C=C/C=C/[C@@H](O)C/C=C/C=C/C(=O)O[C@@H]1[C@@H](O)[C@H](c2c(O)cc(O)cc2CO)O[C@H](CO)[C@H]1O[C@@H]1O[C@H](COC(=O)c2ccc3c(ccc4ccccc43)c2)[C@H](O)[C@H](O)[C@H]1O[C@@H]1O[C@H](CO)[C@H](O)[C@H](O)[C@H]1O [Example 25]
MIC ([1]; Candida albicans, 579A): 0.78 µg/mL (≈ 0.724 µM)
MIC [2, 10]: 1.56 µg/mL (≈ 1.45 µM)
MIC [3, 11]: 1.56 µg/mL (≈ 1.45 µM)
MIC [4, 12]: 1.56 µg/mL (≈ 1.45 µM)
MIC [5]: 0.78 µg/mL (≈ 0.724 µM)

SMILES: CCCCC/C=C/C=C/[C@@H](O)C/C=C/C=C/C(=O)O[C@@H]1[C@@H](O)[C@H](c2c(O)cc(O)cc2CO)O[C@H](CO)[C@H]1O[C@@H]1O[C@H](COC(=O)c2ccc3cc(OCc4ccccc4)ccc3c2)[C@H](O)[C@H](O)[C@H]1O[C@@H]1O[C@H](CO)[C@H](O)[C@H](O)[C@H]1O [Example 24]
MIC [1, 6]: 25 µg/mL (≈ 22.1 µM)
MIC [2, 7]: 25 µg/mL (≈ 22.1 µM)
MIC [3, 8]: 50 µg/mL (≈ 44.1 µM)
MIC [4, 9]: 25 µg/mL (≈ 22.1 µM)
MIC [5]: 25 µg/mL (≈ 22.1 µM)

SMILES: C=CCOc1ccc2cc(C(=O)OC[C@H]3O[C@@H](O[C@H]4[C@H](OC(=O)/C=C/C=C/C[C@H](O)/C=C/C=C/CCCCC)[C@@H](O)[C@H](c5c(O)cc(O)cc5CO)O[C@@H]4CO)[C@H](O[C@@H]4O[C@H](CO)[C@H](O)[C@H](O)[C@H]4O)[C@@H](O)[C@H]3O)ccc2c1 [Example 23]
MIC [1, 6]: 3.12 µg/mL (≈ 2.88 µM)
MIC [2, 7]: 12.5 µg/mL (≈ 11.5 µM)
MIC [3, 8]: 6.25 µg/mL (≈ 5.77 µM)
MIC [4, 9]: 6.25 µg/mL (≈ 5.77 µM)
MIC [5]: 6.25 µg/mL (≈ 5.77 µM)

SMILES: CCCCC/C=C/C=C/[C@@H](O)C/C=C/C=C/C(=O)O[C@@H]1[C@@H](O)[C@H](c2c(O)cc(O)cc2CO)O[C@H](CO)[C@H]1O[C@@H]1O[C@H](COC(=O)c2ccc3ccc4ccccc4c3c2)[C@H](O)[C@H](O)[C@H]1O[C@@H]1O[C@H](CO)[C@H](O)[C@H](O)[C@H]1O [Example 26]
MIC ([1]; Candida albicans, 579A): 0.78 µg/mL (≈ 0.724 µM)
MIC [2, 10]: 0.78 µg/mL (≈ 0.724 µM)
MIC [3, 11]: 1.56 µg/mL (≈ 1.45 µM)
MIC [4, 12]: 0.78 µg/mL (≈ 0.724 µM)
MIC [5]: 1.56 µg/mL (≈ 1.45 µM)

Further lines, results first:

MIC [1, 6]: 0.78 µg/mL (≈ 0.702 µM)
MIC [2, 7]: 0.78 µg/mL (≈ 0.702 µM)
MIC [3, 8]: 0.78 µg/mL (≈ 0.702 µM)
MIC [4, 9]: 0.78 µg/mL (≈ 0.702 µM)
MIC [5]: 0.78 µg/mL (≈ 0.702 µM)
SMILES: CCCCC/C=C/C=C/[C@@H](O)C/C=C/C=C/C(=O)O[C@@H]1[C@@H](O)[C@H](c2c(O)cc(O)cc2CO)O[C@H](CO)[C@H]1O[C@@H]1O[C@H](COC(=O)c2ccc(-c3ccc(OCCC)cc3)cc2)[C@H](O)[C@H](O)[C@H]1O[C@@H]1O[C@H](CO)[C@H](O)[C@H](O)[C@H]1O [Example 42]

MIC [1, 6]: 1.56 µg/mL (≈ 1.46 µM)
MIC [2, 7]: 3.12 µg/mL (≈ 2.92 µM)
MIC [3, 8]: 3.12 µg/mL (≈ 2.92 µM)
MIC [4, 9]: 3.12 µg/mL (≈ 2.92 µM)
MIC [5]: 3.12 µg/mL (≈ 2.92 µM)
SMILES: CCCCC/C=C/C=C/[C@@H](O)C/C=C/C=C/C(=O)O[C@@H]1[C@@H](O)[C@H](c2c(O)cc(O)cc2CO)O[C@H](CO)[C@H]1O[C@@H]1O[C@H](COC(=O)c2ccc(Oc3ccccc3)cc2)[C@H](O)[C@H](O)[C@H]1O[C@@H]1O[C@H](CO)[C@H](O)[C@H](O)[C@H]1O [Example 31]

MIC [1, 6]: 3.12 µg/mL (≈ 2.76 µM)
MIC [2, 7]: 6.25 µg/mL (≈ 5.53 µM)
MIC [3, 8]: 6.25 µg/mL (≈ 5.53 µM)
MIC [4, 9]: 3.12 µg/mL (≈ 2.76 µM)
MIC [5]: 6.25 µg/mL (≈ 5.53 µM)
SMILES: CCCCC/C=C/C=C/[C@@H](O)C/C=C/C=C/C(=O)O[C@@H]1[C@@H](O)[C@H](c2c(O)cc(O)cc2CO)O[C@H](CO)[C@H]1O[C@@H]1O[C@H](COC(=O)c2cccc(-c3ccc(-c4ccccc4)cc3)c2)[C@H](O)[C@H](O)[C@H]1O[C@@H]1O[C@H](CO)[C@H](O)[C@H](O)[C@H]1O [Example 34]

MIC [1, 6]: 0.78 µg/mL (≈ 0.702 µM)
MIC [2, 7]: 1.56 µg/mL (≈ 1.4 µM)
MIC [3, 8]: 0.78 µg/mL (≈ 0.702 µM)
MIC [4, 9]: 0.78 µg/mL (≈ 0.702 µM)
MIC [5]: 0.78 µg/mL (≈ 0.702 µM)
SMILES: CCCCC/C=C/C=C/[C@@H](O)C/C=C/C=C/C(=O)O[C@@H]1[C@@H](O)[C@H](c2c(O)cc(O)cc2CO)O[C@H](CO)[C@H]1O[C@@H]1O[C@H](COC(=O)c2ccc(-c3ccc(OC(C)C)cc3)cc2)[C@H](O)[C@H](O)[C@H]1O[C@@H]1O[C@H](CO)[C@H](O)[C@H](O)[C@H]1O [Example 43]

Reference: patent US5773421A, “Antifungal fusacandins” (Abbott Laboratories, priority 1995, dated 1998)
